# Key:
# MCH-5 [1] = target: T1, MCH-5 (Homo sapiens, UniProt Q14790); test: Fluorescence enzyme assay, IC50 determination, Mch5; assay type: biochemical; details: substrate Acetyl-Asp-Glu-Val-Asp-AMC, 30 min preincubation, room temperature
# Method: (§1) Fluorescence enzyme assays detecting the activity of the compounds of Formula 1 utilizing the recombinant ICE and CPP32 enzymes were performed essentially according to Thornberry et al. (Nature, 356:768:774 (1992)) and Nicholson et al. (Nature, 376:37-43 (1995)) respectively, (herein incorporated by reference) in 96 well microtiter plates. The substrate is Acetyl-Tyr-Val-Ala-Asp-amino-4-methylcoumarin (AMC) for the ICE assay and Acetyl-Asp-Glu-Val-Asp-amino-4-methylcoumarin for the CPP32, Mch2, Mch3 and Mch5 assays. Enzyme reactions were run in ICE buffer (25 mM HEPES, 1 mM EDTA, 0.1% CHAPS, 10% sucrose, pH 7.5) containing 2 mM DTT at room temperature in duplicate. The assays were performed by mixing the following components:
# (§2) 50 μL ICE, Mch2, Mch5, CPP32 (18.8, 38, 8.1 and 0.153 nM concentrations, respectively) or Mch3 (1 unit) enzyme in ICE buffer containing either 8.0 (ICE, Mch2, Mch3, CPP32) or 20 (Mch5) mM DTT;
# (§3) 50 μL compound of Formula 1 or ICE buffer (control); and
# (§4) 100 μL of 20 μM substrate.
# (§5) The enzyme and the compound of Formula 1 to be assayed were allowed to preincubate in the microtitre plate wells for 30 minutes at room temperature prior to the addition of substrate to initiate the reaction. Fluorescent AMC product formation was monitored for one hour at room temperature by measuring the fluorescence emission at 460 nm using an excitation wavelength of 360 nm. The fluorescence change in duplicate (control) wells were averaged and the mean values were plotted as a function of inhibitor concentration to determine the inhibitor concentration producing 50% inhibition (IC50).
# (§6) The reference compound for this assay was Cbz-ValAlaAsp-H and the values are denoted in Table 1 as “Reference”.
# CPP32 [2] = target: T2, CPP32 (Homo sapiens, UniProt P42574); test: Fluorescence enzyme assay, IC50 determination, CPP32; assay type: biochemical; details: recombinant enzyme, substrate Acetyl-Asp-Glu-Val-Asp-AMC, 30 min preincubation, room temperature
# T2 sequence (P42574 29-175 limits assumed): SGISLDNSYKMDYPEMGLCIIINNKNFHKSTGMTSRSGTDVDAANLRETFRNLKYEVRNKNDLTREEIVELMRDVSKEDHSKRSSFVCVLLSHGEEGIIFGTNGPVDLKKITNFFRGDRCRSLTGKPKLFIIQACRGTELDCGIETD
# T2 sequence (P42574 176-277 limits assumed): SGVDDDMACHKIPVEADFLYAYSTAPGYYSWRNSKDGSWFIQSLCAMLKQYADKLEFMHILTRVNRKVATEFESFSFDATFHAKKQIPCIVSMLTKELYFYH
# Method: as §1, §2, §3, §4, §5, §6
# MCH-3 = target: T3, MCH-3 (Homo sapiens, UniProt P55210); test: Fluorescence enzyme assay, IC50 determination, Mch3; assay type: biochemical; details: substrate Acetyl-Asp-Glu-Val-Asp-AMC, 30 min preincubation, room temperature
# T3 sequence (P55210 24-198 limits assumed): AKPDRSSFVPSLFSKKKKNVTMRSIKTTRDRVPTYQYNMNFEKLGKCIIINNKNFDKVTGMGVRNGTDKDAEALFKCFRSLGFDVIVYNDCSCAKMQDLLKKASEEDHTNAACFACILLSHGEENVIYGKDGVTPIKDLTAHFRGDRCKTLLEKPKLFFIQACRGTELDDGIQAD
# T3 sequence (P55210 207-303 limits assumed): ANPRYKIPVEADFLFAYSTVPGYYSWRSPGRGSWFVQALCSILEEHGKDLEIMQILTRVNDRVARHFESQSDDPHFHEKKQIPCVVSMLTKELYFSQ
# Method: as §1, §2, §3, §4, §5, §6
# MCH-2 [3] = target: T4, MCH-2 (Homo sapiens, UniProt P55212); test: Fluorescence enzyme assay, IC50 determination, Mch2; assay type: biochemical; details: substrate Acetyl-Asp-Glu-Val-Asp-AMC, 30 min preincubation, room temperature
# T4 sequence (P55212 24-179 limits assumed): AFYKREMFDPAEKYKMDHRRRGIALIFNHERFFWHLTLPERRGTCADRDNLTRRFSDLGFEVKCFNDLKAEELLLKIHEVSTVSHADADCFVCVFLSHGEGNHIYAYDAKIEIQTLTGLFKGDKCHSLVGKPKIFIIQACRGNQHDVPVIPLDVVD
# T4 sequence (P55212 194-293 limits assumed): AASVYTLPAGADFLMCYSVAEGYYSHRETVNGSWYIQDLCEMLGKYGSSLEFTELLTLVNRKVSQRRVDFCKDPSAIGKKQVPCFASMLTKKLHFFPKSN
# Method: as §1, §2, §3, §4, §5, §6
# mICE [4] = target: T5, mICE (Mus musculus, UniProt P29452); test: Fluorescence enzyme assay, IC50 determination, ICE; assay type: biochemical; details: recombinant enzyme, substrate Acetyl-Tyr-Val-Ala-Asp-AMC, 30 min preincubation, room temperature
# T5 sequence (P29452 123-296 limits assumed): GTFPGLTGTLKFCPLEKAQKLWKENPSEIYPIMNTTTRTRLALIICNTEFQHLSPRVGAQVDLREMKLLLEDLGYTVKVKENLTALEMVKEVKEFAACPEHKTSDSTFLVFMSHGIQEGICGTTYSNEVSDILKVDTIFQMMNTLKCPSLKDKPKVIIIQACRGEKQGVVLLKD
# T5 sequence (P29452 315-402 limits assumed): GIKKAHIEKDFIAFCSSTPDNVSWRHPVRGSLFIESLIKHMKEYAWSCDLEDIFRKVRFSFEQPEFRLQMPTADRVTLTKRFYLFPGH
# Method: as §1, §2, §3, §4, §5, §6
# CPP32 [5] = target: T2, CPP32; test: Continuous assay for Ki and k3 of irreversible inhibitors, CPP32; assay type: biochemical
# Source text: (§7) B. Determination of the dissociation constant Ki and irreversible rate constant k3 for irreversible inhibitors
# (§8) For the irreversible inhibition of a ICE/ced-3 Family Protease enzyme with a competitive irreversible inhibitor; using the model represented by the following formulas: [drawing 14]
# (§9) The product formation at time t may be expressed as: [formula]
# (§10) where E, I, EI and E-I denote the active enzyme, inhibitor, non-covalent enzyme-inhibitor complex and covalent enzyme-inhibitor adduct, respectively. The Ki value is the overall dissociation constant of the reversible binding steps, and k3 is the irreversible rate constant. The [S] and Ks values are the substate concentration and dissociation constant of the substrate bound to the enzyme, respectively. [E]^T is the total enzyme concentration.
# (§11) The above equations were used to determine the Ki and k3 values of a given inhibitor bound to a ICE/ced-3 family protease. Thus, a continuous assay was run for sixty minutes at various concentrations of the inhibitor and the substrate. The assay was formulated essentially the same as described above for generating the data in Table 1, except that the reaction was initiated by adding the enzyme to the substrate-inhibitor mixture. […]
# MCH-5 [6] = target: T1, MCH-5; test: Continuous assay for Ki and k3 of irreversible inhibitors, Mch5; assay type: biochemical
# Source text: as §7, §8, §9, §10, §11
# mICE [7] = target: T5, mICE; test: Continuous assay for Ki and k3 of irreversible inhibitors, ICE; assay type: biochemical
# Source text: as §7, §8, §9, §10, §11
# MCH-2 [8] = target: T4, MCH-2; test: Continuous assay for Ki and k3 of irreversible inhibitors, Mch2; assay type: biochemical
# Source text: as §7, §8, §9, §10, §11
# [9] = continuous assay 60 min, reaction initiated by adding enzyme
# T1 sequence (Q14790 217-374 limits assumed, species assumed): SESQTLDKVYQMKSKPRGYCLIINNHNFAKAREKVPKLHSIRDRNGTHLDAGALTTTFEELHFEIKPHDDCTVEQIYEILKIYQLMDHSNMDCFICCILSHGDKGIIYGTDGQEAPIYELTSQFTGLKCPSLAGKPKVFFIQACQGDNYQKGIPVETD
# T1 sequence (Q14790 385-479 limits assumed, species assumed): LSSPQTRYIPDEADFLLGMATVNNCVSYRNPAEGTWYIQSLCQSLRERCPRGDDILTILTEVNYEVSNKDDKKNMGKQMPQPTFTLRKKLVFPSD
SMILES,IC50 (MCH-5 [1]) [µM],IC50 (CPP32 [2]) [µM],IC50 (MCH-3) [µM],melting point,IC50 (MCH-2 [3]) [µM],IC50 (mICE [4]) [µM],k3/Ki (CPP32 [5]; Example 31) [M⁻¹ s⁻¹],Ki (CPP32 [5]; [9]) [µM],k3/Ki (MCH-5 [6]; Example 31) [M⁻¹ s⁻¹],Ki (MCH-5 [6]; [9]) [µM],k3/Ki (mICE [7]; Example 31) [M⁻¹ s⁻¹],Ki (mICE [7]; [9]) [µM],k3/Ki (MCH-2 [8]; Example 31) [M⁻¹ s⁻¹],Ki (MCH-2 [8]; [9]) [µM]
"O=C1CC(NC(=O)C2CCc3cccc4c3N2C(=O)C(NC(=O)OCc2ccccc2)CC4)C(O)O1 (mixture of isomers) [Example 28, (3R,S-cis)-6-Benzyloxycarbonylamino-5-oxo-2,3,4,5,6,7,8-hexahydro-1H-azepino[3,2,1-hi]quinoline-3-carbonyl)-amino]-4-oxo-butanoic acid]",2.06,0.437,1.11,120 to 123 °C (dec.),32,0.026,–,–,–,–,–,–,–,–
O=C1C[C@H](NC(=O)[C@@H]2Cc3cccc4c3N2C(=O)[C@@H](NC(=O)OCc2ccccc2)CC4)C(O)O1 (stereo partly drawn) [Example 3],> 10,1.03,6.96,101 to 104 °C,40.1,0.019,–,–,–,–,–,–,–,–
CC(=O)N[C@@H](CC(=O)O)C(=O)N[C@H]1CCc2cccc3c2N(C1=O)[C@H](C(=O)N[C@H]1CC(=O)OC1O)C3 (stereo partly drawn) [Example 7],2.09,0.0014,0.145,160 to 175 °C (dec.),6.47,0.694,–,–,–,–,–,–,–,–
O=C(O)CCC(=O)N[C@H]1CCc2cccc3c2N(C1=O)[C@H](C(=O)N[C@H]1CC(=O)OC1O)C3 (stereo partly drawn) [Example 10],7.98,0.245,2.83,145 to 160 °C (dec.),1.81,0.571,–,–,–,–,–,–,–,–
O=C(O)C[C@H](NC(=O)OCc1ccccc1)C(=O)N[C@H]1CCc2cccc3c2N(C1=O)[C@H](C(=O)N[C@H]1CC(=O)OC1O)C3 (stereo partly drawn) [Example 13],1.19,0.00052,0.084,140 to 144 °C (dec.),–,0.096,–,–,–,–,–,–,–,–
O=C(CCc1ccccc1)N[C@H]1CCc2cccc3c2N(C1=O)[C@H](C(=O)N[C@H]1CC(=O)OC1O)C3 (stereo partly drawn) [Example 16],18.7,0.78,32.6,78 to 81 °C,> 10,0.045,–,–,–,–,–,–,–,–
CC(=O)N[C@H]1CCc2cccc3c2N(C1=O)[C@H](C(=O)N[C@H]1CC(=O)OC1O)C3 (stereo partly drawn) [Example 19],> 50,3.87,> 50,210 to 215 °C (dec.),> 10,3.07,–,–,–,–,–,–,–,–
CC(C)(C)OC(=O)C[C@@H](/C=N/NC(N)=O)NC(=O)[C@@H]1Cc2cccc3c2N1C(=O)[C@@H](NC(=O)c1cccc2ccccc12)CC3 [Example 20],–,–,–,103 to 105 °C (dec.),–,–,–,–,–,–,–,–,–,–
O=C1C[C@H](NC(=O)[C@@H]2Cc3cccc4c3N2C(=O)[C@@H](NC(=O)c2cccc3ccccc23)CC4)C(O)O1 (stereo partly drawn) [Example 22],1.09,2.91,12.3,202 to 203 °C (dec.),> 50,0.01,–,–,–,–,–,–,–,–
O=C1C[C@H](NC(=O)[C@@H]2Cc3cccc4c3N2C(=O)[C@@H](NC(=O)c2ccccc2)CC4)C(O)O1 (stereo partly drawn) [Example 25],4.63,8.77,> 50,204 to 205 °C (dec.),> 50,0.159,–,–,–,–,–,–,–,–
O=C(O)CC(NC(=O)[C@@H]1Cc2cccc3c2N1C(=O)[C@@H](NC(=O)OCc1ccccc1)CC3)C(=O)CF (stereo partly drawn) [Example 31],–,–,–,–,–,–,960000,0.012,98000,0.022,1.2e+07,0.0005,25000,0.033
"O=C(O)C[C@H](NC(=O)[C@@H]1Cc2cccc3c2N1C(=O)[C@@H](NC(=O)OCc1ccccc1)CC3)C(=O)COP(=O)(c1ccccc1)c1ccccc1 [Example 34, 3-[(2S-cis)-[5-Benzyloxycarbonylamino-1,2,3,4,5,6,7-hexahydro-4-oxoazapino[3,2,1-hi]indole-2-carbonyl]amino]5-(diphenylphosphinyl) oxy-4-oxo-pentanoic acid]",–,–,–,109 to 111 °C (dec.),–,–,–,–,–,–,–,–,–,–

# — patent US6444663B1, “Tricyclic compounds for the inhibition of the ICE/ced-3 protease family of enzymes” (Idun Pharmaceuticals, Inc., priority 1996, dated 2002)
